No end group written: not given here.
Assays:
Format in all cases: cell-based, human
HeLa cells [1] = test: Endocytosis inhibition analysis (uptake with inhibitors); details: 10 μM, 37° C., 30 minutes, inhibitors NaN3 and 2DG, EIPA, NaClO3, FIG. 8(A)
Experimental: For inhibition of endocytosis, HeLa cells are treated with 200 mM sodium azide (NaN3; Sigma) and 2-deoxy-D-glucose (2DG; Sigma) for 1 hour to deplete intracellular ATP pools and influence cell metabolism. hADSCs are treated with 10 mM NaN3 and 2DG for 1 h with the same purpose. For inhibition of macropinosome formation, HeLa cells and hADSCs are treated with 3 mM 5-(N-ethyl-N-isopropyl) amiloride (EIPA, Sigma) for 10 minutes. For inhibition of proteoglycan sulfation, HeLa cells and hADSCs are treated with 600 mM sodium chlorate (NaClO3, Sigma) for 2 days. After this treatment of inhibitors, cells are treated with 10 μM test compound (200 μl), and then incubated at 37° C. for 30 minutes. 10^4 cells in 0.1 ml medium are seeded into each well of a 24-well plate, and then trypsin (200 μl) is added into each well. Cells are transferred to a microtube and incubated for 5 minutes. Cells are processed for flow cytometry as described above after being added with 200 μl of medium and washed with PBS.

hADSCs = test: Fluorescence microscopy of translocation into cells; details: FITC-labeled, 10 μM, 30 minutes, 37° C., FIG. 5
Experimental: (§1) Cells are treated with 10 μM test compound for 30 minutes at 37° C., washed using PBS, and then treated with 0.5% trypsin. Cells are labeled with 5 μg/ml Hoechst 33342 (Invitrogen) and PKH26-GL (Sigma) respectively for nuclei and membrane labeling. Standard protocols are followed according to the kit instructions. Cells are lastly suspended again in PBS for fluorescence images. Fluorescence images are captured by Olympus, CellR and Olympus FV1000 confocal microscope using glass-bottom culture slides with excitation by 488 nm (FITC-labeled peptide) laser line.

HeLa cells [2] = test: as above; details: FITC-labeled, 10 μM, 30 minutes, 37° C., FIG. 4
Experimental: as §1

**Q.** How did the “route of internalization, uptake combined with inhibitors” value (HeLa cells [1]) turn out when 6-aminocaproic acid-R7 [ACP-R7] was run?
**A.** Its value is “internalized by macropinocytosis, endocytosis, and direct translocation resulted from proteoglycan sulfation”.

**Q.** What about the translocation into cells (hADSCs) of the same substance?
**A.** Its translocation into cells is “crosses into ADSCs”.

**Q.** What about the translocation into cells (HeLa cells [2]) of the same substance?
**A.** The translocation into cells was “crosses into HeLa cells”.

**Q.** For “AAAADD [A4D2, four alanine residues linked to the N terminal of two aspartate residues]”, which translocation into cells (hADSCs) is on record?
**A.** The translocation into cells was “crosses into ADSCs”.

**Q.** How did the translocation into cells (hADSCs) turn out when “AADDDD [A2D4, two alanine residues linked to the N terminal of four aspartate residues]” was run?
**A.** Its translocation into cells is “crosses into ADSCs”.

**Q.** How did the translocation into cells (hADSCs) turn out when “DDDDDD [D6, peptide of six aspartate residues]” was run?
**A.** The translocation into cells was “crosses into ADSCs”.

**Q.** For “KD6K-simvastatin: peptide KDDDDDDK carrying simvastatin and PEG500; Lys capped by acetic anhydride or FITC (also: carries simvastatin and PEG500, Lys capped by acetyl or FITC)”, which translocation into cells (hADSCs) is on record?
**A.** The translocation into cells was “crosses into ADSCs”.

**Q.** Which translocation into cells (hADSCs) does the source give for “KDDDDDD [KD6, one lysine residue linked to the N terminal of six aspartate residues]” here?
**A.** Its translocation into cells is “crosses into ADSCs”.

Reference: patent US8614194B1, “Anionic cell penetrating peptide and its use for intracellular delivery” (Kaohsiung Medical University, priority 2012, dated 2013)
